From patent US20210238169A1, “PROCESS FOR PREPARING A COMPOUND OF FORMULA (XIII)” (PULMOCIDE LIMITED, priority 2014, published 2021)
Values after ≈ are worked out from the molar mass of the structure shown. Like-named read-outs stand apart in the source and are kept apart here.

Columns and labels:
Aspergillus fumigatus = Aspergillus fumigatus infection of BEAS2B bronchial epithelial cells (GM in supernatant); type: cell-based
Procedure: BEAS2B cells were seeded in 96-well plates (100 μL; 30,000 cells/well; Catalogue No 3596, Sigma Aldrich, Dorset, UK) in 10% FBS RPMI-1640 and were then incubated (37° C., 5% CO2) for one day before experimentation. Test compounds (0.5 μL DMSO solution) or vehicle (DMSO) were added to each well to give a final DMSO concentration of 0.5%. BEAS2B cells were incubated with test compounds for 1 hr (35° C., 5% CO2) before infection with Aspergillus fumigatus (20 μL; Public Health England) conidia suspension (0.5×10^5/ml in 10% FBS RPMI-1640). The plate was incubated for 24 hr (35° C., 5% CO2). Supernatant (50 μL) was collected and transferred to a PCR plate (Catalogue No L1402-9700, Starlab, Milton Keynes, UK), which was frozen (−20° C.) until use. After thawing, supernatant (5 μL) was diluted 1:20 by adding R7-PBS solution (95 μL; 1:4 R7 to PBS; Bio-Rad Laboratories, Redmond, Wash., USA). GM levels in these samples (50 μL) were measured using Platelia GM-EIA kits (Bio-Rad Laboratories, Redmond, Wash., USA). The percentage inhibition for each well was calculated and the IC50 value was calculated from the concentration-response curve generated for each test compound.

[1] = system: Aspergillus fumigatus isolates; assay: Broth microdilution assay of planktonic fungal growth (modified EUCAST); type: cell-based; conditions: Aspergillus fumigatus
Procedure: This assay was conducted using a modified method published by EUCAST (Rodriguez-Tudela et al., 2008). Spores of Aspergillus fumigatus (NCPF2010, NCPF7010 (Methionine 220 mutation), NCPF7099 (Glycine G54 mutation) from Public Health England, Wiltshire; TR34/L98H mutants from St Louis Hospital, Paris, France) were cultured in Sabouraud dextrose agar for 3 days. A stock spore suspension was prepared from a Sabouraud dextrose agar culture by washing with PBS-tween (10 mL; PBS containing 0.05% Tween-20, 100 U/mL Penicillin and 100 U/mL Streptomycin). The spore count was assessed using a Neubauer haemocytometer and then adjusted to 10^6 spores/mL with PBS. A working suspension of spores (2×10^5 spores/mL) was prepared in filter sterilised, BSA MOPS RPMI-1640 (50 mL; RPMI-1640 containing 2 mM L-glutamine, 0.5% BSA, 2% glucose, 0.165 M MOPS, buffered to pH 7 with NaOH). For the assay, BSA MOPS RPMI-1640 (50 μL/well) was added throughout the 384-well plate (Catalogue number 353962, BD Falcon, Oxford, UK) first. Test compounds (0.5 μL DMSO solution) were then added in quadruplicate using an Integra VIAFLO 96 (Integra, Zizers, Switzerland), and mixed well using a plate mixer. Subsequently 50 μL of the working spore suspension prepared above was added to all wells except non-spore control wells. For non-spore control wells, BSA MOPS-RPMI solution (50 μL/well) was added instead. The plate was covered with a plastic lid, and incubated (35° C. with ambient air) for 48 hr. The OD of each well at 530 nm was determined using a multi-scanner (Clariostar: BMG, Buckinghamshire, UK). The percentage inhibition for each well was calculated and the MIC50, MIC75 and MIC90 values were calculated from the concentration-response curve generated for each test compound.

[2] = system: Aspergillus fumigatus (NCPF2010); assay: Resazurin-microtitre assay of planktonic fungal growth; type: cell-based; conditions: Aspergillus fumigatus; for MIC: read-out: Planktonic fungal growth MIC75
Procedure: This assay was conducted using a modified, published method (Monteiro et al., 2012). Spores of Aspergillus fumigatus (NCPF2010, Public Health England, Wiltshire) were cultured in Sabouraud dextrose agar for 3 days. A stock spore suspension was prepared from a Sabouraud dextrose agar culture by washing with PBS-tween (10 mL; PBS containing 0.05% Tween-20, 100 U/mL Penicillin and 100 U/mL Streptomycin). The spore count was assessed using a Neubauer haemocytometer and, using PBS, adjusted to 10^6 spores/mL. A working suspension of spores (10^4 spores/mL) was prepared in filter sterilised MOPS RPMI-1640 (50 mL; RPMI-1640 containing 2 mM L-glutamine, 2% glucose and 0.165 M MOPS, buffered to pH 7 with NaOH). Resazurin sodium salt (100 μL of 1% solution; Sigma-Aldrich, Dorset, UK) was added to the spore suspension and mixed well. The spore suspension-resazurin mixture (100 μL/well) was added to 384-well plates (Catalogue number 353962, BD Falcon, Oxford, UK). Simultaneously, test compounds (0.5 μL DMSO solution) were added to 100 μL of the spore-resazurin mixture in quadruplicate to provide a final DMSO solution of 0.5% using an Integra VIAFLO 96 (Intergra, Zizers, Switzerland). For non-spore control wells, MOPS-RPMI-resazurin solution (100 μL) was added instead of the spore-resazurin mixture. The plate was covered with a Breathe Easier membrane (Catalogue No Z763624, Sigma-Aldrich, Dorset, UK), and incubated (35° C., 5% CO2) until fluorescence in the inoculated wells was double that of the control wells (around 24 hr). The fluorescence of each well (545 nm (excitation)/590 nm (emission), gain 800, focal height 5.5 mm) was determined using a multi-scanner (Clariostar: BMG, Buckinghamshire, UK). The percentage inhibition for each well was calculated and the MIC50, MIC75 and MIC90 values were calculated from the concentration-response curve generated for each test compound.

[3] = system: Aspergillus fumigatus isolates; assay: Broth microdilution assay of planktonic fungal growth (modified EUCAST); type: cell-based; conditions: Aspergillus fumigatus; isolate NCPF7100, broth microdilution; read-out: MIC75
[4] = Fungus panel screening, CLSI broth microdilution; type: cell-based, Aspergillus pullulans; conditions: Aspergillus
Procedure: Fungus panel screening was conducted by Eurofins Panlabs Inc. The MIC and MIC50 values of the test articles were determined following the guidelines of the Clinical and Laboratory Standards Institute, broth microdilution methods for yeast (CLSI M27-A2), (CLSI, 2002) and for filamentous fungi (CLSI M38-A), (CLSI, 2008).

[5] = isolate NCPF7099, broth microdilution, read-out: MIC75
[6] = strain ATCC9348, visual inspection (CLSI), read-out: MIC50
[7] = strain ATCC9348, visual inspection (CLSI), read-out: MIC100

Which results are given for `Cc1cc(N2CCN(c3ccc(C(=O)Nc4ccc(F)cc4)cc3)CC2)ccc1OC[C@@H]1CO[C@@](Cn2cncn2)(c2ccc(F)cc2F)C1` [Compound (I), 4-(4-(4-(((3R,5R)-5-((1H-1,2,4-triazol-1-yl)methyl)-5-(2,4-difluorophenyl)tetrahydrofuran-3-yl)methoxy)-3-methylphenyl)piperazin-1-yl)-N-(4-fluorophenyl)benzamide]?
MIC50 (Aspergillus fumigatus): 0.00543 µM (≈ 0.00371 µg/mL); MIC ([1]; NCPF2010, read-out: MIC75): 0.0136 µM (≈ 0.00929 µg/mL); MIC ([1]; read-out: MIC75): 0.0567 µM (≈ 0.0387 µg/mL); MIC [1, 5]: 0.0165 µM (≈ 0.0113 µg/mL); MIC50 [2]: 0.00198 µM (≈ 0.00135 µg/mL); MIC [2]: 0.00502 µM (≈ 0.00343 µg/mL); MIC [3]: 0.0197 µM (≈ 0.0135 µg/mL); MIC50 [4, 6]: > 8 µg/mL; MIC [4, 7]: > 8 µg/mL

Which MIC50 (Aspergillus fumigatus) does the source give for `CC[C@@H]([C@H](C)O)n1ncn(-c2ccc(N3CCN(c4ccc(OC[C@@H]5CO[C@@](Cn6cncn6)(c6ccc(F)cc6F)C5)cc4)CC3)cc2)c1=O` [Posaconazole] here?
Its MIC50 is 0.00448 µM (≈ 0.00314 µg/mL).

What about the MIC ([1]; read-out: MIC75) of the same compound?
The MIC was 0.15 µM (≈ 0.105 µg/mL).

And the MIC [1, 5]?
Its MIC is 0.112 µM (≈ 0.0785 µg/mL).

And the MIC50 [2]?
Its MIC50 is 0.00364 µM (≈ 0.00255 µg/mL).

What about the MIC [2] of the same compound?
The MIC was 0.00694 µM (≈ 0.00486 µg/mL).

And the MIC [3]?
The MIC was 0.0715 µM (≈ 0.0501 µg/mL).

What about the MIC50 [4, 6] of the same compound?
Its MIC50 is 0.25 µg/mL (≈ 0.357 µM).

What about the MIC [4, 7] of the same compound?
Its MIC is 1 µg/mL (≈ 1.43 µM).

With `C[C@@H](c1ncncc1F)[C@](O)(Cn1cncn1)c1ccc(F)cc1F` [Voriconazole] as the compound, how does the MIC50 (Aspergillus fumigatus) read?
The MIC50 was 0.154 µM (≈ 0.0538 µg/mL).

What about the MIC ([1]; read-out: MIC75) of the same compound?
The MIC was greater than 2.86 µM.

What about the MIC [1, 5] of the same compound?
Its MIC is 0.0967 µM (≈ 0.0338 µg/mL).

What about the MIC50 [2] of the same compound?
Its MIC50 is 0.0908 µM (≈ 0.0317 µg/mL).

What about the MIC [2] of the same compound?
Its MIC is 0.168 µM (≈ 0.0587 µg/mL).

What about the MIC [3] of the same compound?
Its MIC is 0.596 µM (≈ 0.208 µg/mL).

And the MIC50 ([4]; ATCC9348)?
Its MIC50 is greater than 8 µg/mL.

What about the MIC ([4]; ATCC9348, read-out: MIC100) of the same compound?
Its MIC is greater than 8 µg/mL.
